Patent publication EP0808325B1, “[…] […] SERIES FOR […] GABA RECEPTOR” (priority 1994, dated 1996)

Assays:
mice [1] = experiment: loss-of-righting reflex (anesthetic activity); assay type: in vivo; parameters: unit not given here; details: iv
Procedure: The compounds of and used in the invention can also be used for anesthetic indications at high doses. However, the preferred route of administration to induce anesthesia is intravenous (i.v.) administration. In animals, a drug's anesthetic properties is measured by the drug's ability to produce a loss-of-righting reflex. The loss-of-righting reflex is defined as the inability of an animal to right itself within 30 seconds when placed on its back. Mice were administered drug i.v. in the lateral tail vein. Following administration, mice were placed on their backs and observed for loss-of-righting reflex.

GR complex = experiment: modulation of [35S]TBPS binding in rat cerebral cortex P2 homogenate; parameters: species or system Sprague-Dawley rats; IMAX: unit not given here; details: for IC50: concentration of compounds to inhibit 50% of control [35S]TBPS binding, 2 nM [35S]TBPS, 25°C, 90 minutes, no unit printed; for IMAX: maximum inhibition of [35S]TBPS binding, I* = Inactive
In short: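 Rat (male Sprague-Dawley) cortical P2 homogenate, 0.5 mg protein, in 50 mM Na/K phosphate pH 7.4, 200 mM NaCl, incubated 90 min at 25° C with 2 nM [35S]TBPS plus GABA and (+)bicuculline, compounds added in DMSO. Filter-bound radioactivity counted; nonspecific binding defined with […].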

[2] = test system: metrazol induced convulsions; experiment: animal or person; assay type: in vivo, mice; details: IP, 10 mg/kg
mice [3] = experiment: elevated plus-maze; assay type: in vivo, N.I.H. Swiss-Webster mice; details: IP
Source text: The theoretical basis for the elevated plus-maze test is similar to that of the light/dark transition test. As described by Pellow et al., J. Neurosci. Meth 14:149-167 (1985), the elevated plus-maze apparatus is designed to utilize the mice's natural aversion to open spaces. The apparatus consists of two open-arms and two enclosed-arms. The elevated plus-maze test allows for two measures of anxiety, the number of entries into the open-arms and the time spent on the open-arms, both expressed as a percentage of the total number of entries and time spent in/on both the open-arms and enclosed-arms.
Male N.I.H. Swiss-Webster mice (Harlan, Indianapolis, IN) weighing 15-20 g were housed four per cage in polyethylene cages with sawdust bedding. The colony room was environmentally controlled (22°C) with a 12 hr light/dark cycle (0600-1800 hr). Food and water were available ad libitum, except during testing. The experiments were run from 0700-1500 hr and groups were counterbalanced for time of day effects. Mice were only administered drug or vehicle once.
The method used was previously described (Lister, Psychopharmacol. 92:180-185 (1987)). The apparatus included two open arms perpendicular to two enclosed arms elevated 50 cm from the floor. Each arm was 50 cm long and the walls of the enclosed arms were 40 cm tall. The maze was made completely of black plexiglass. Incandescent 200 W light bulbs were above each of the open arms to produce a strong contrast between the open arms and the enclosed arms.
Ten minutes after an injection, the N.I.H. Swiss-Webster mice were placed in the center of the plus-maze facing an open arm. During the 5 min test period, the number of entries onto the open arms and the enclosed arms, and the time spent in the open arms and enclosed arms were measured. All four paws had to be within an arm for the dependent variable to be measured. Therefore, the time spent in the center of the maze is not counted, so the total time spent in the open arms and the enclosed arms may not equal 5 min. […]

rats = experiment: Geller-Seifter conflict test; assay type: in vivo, Sprague-Dawley rats
Source text: This animal model of human anxiety utilizes a conditioned state of conflict in rats to ascertain the anxiolytic properties of drugs. Rats are conditioned to bar press for positive reinforcement under two schedules of behavior (Geller and Seifter, Psychopharmacologia 1:482-492 (1960)). The first includes bar pressing under a […] schedule without punishment. The second component is a fixed ratio schedule with each bar press resulting in a positive reinforcement and a punishment. The punished component produces a state of conflict within the animal. […] An anxiolytic response would increase the punished responding without affecting the unpunished responding.
Male albino Sprague-Dawley rats (Charles River Labs, Wilmington, MA) weighing 250-300 g were used for conflict experiments and were kept on a restricted diet of Purina Lab Chow food pellets with water available at all times to maintain body weight at 85% of their free-feeding young adult levels. Rats were housed individually under a 12-hour light-dark cycle with lights on from 0700-1900.
The anti-anxiety (punishment-lessening) and response depressant effects of […] and […] were measured in rats by the conflict test of Geller and Seifter (1960). In this 63-min test, hungry rats perform a lever-press response to obtain a sweetened milk reward. The reinforcement schedule consists of punishment and nonpunishment components, alternating approximately every 15 min. Rats were trained in test chambers (Coulbourn instruments) with a lever mounted in one wall, a small dipper that delivered the 0.1-mL milk reward (1 part Eagle condensed : milk 2 parts water), and a metal grid floor through which the foot-shock punishment was administered. A DEC PDP 11/73 minicomputer running SKED (State Systems) was used for programming and recording.
Rates initially learned to respond on a continuous reinforcement schedule and progressed rapidly to 30-sec, 1-min, and 2-min variable interval (VI) schedules. On the continuous reinforcement schedule, rats received milk reward following every lever press; on the VI schedules, milk rewards were available at infrequent and variable intervals, eventually at an average of once every 2 min. Four 3-min "conflict" periods were then introduced on the unpunished VI baseline; the first started after 3 min of VI performance and the others were alternated between 12-min periods of VI responding. During conflict periods, which were signalled by the presentation of a light and a tone, the continuous reinforcement schedule was again in force and each lever press delivered both a milk reward and a brief ([…]) foot-shock punishment. Shock intensity was 0.2 mA initially, and.was increased daily in increments of 0.02 mA in order to gradually suppress lever pressing to 5 responses or less per conflict period. This training took 4-6 weeks, after which stable low rates of response were observed during conflict periods and stable high rates in the nonpunishment periods. Drug-induced increases in the rate of punished responses were taken as an index of antianxiety activity, while decreases in the rate of unpunished responses were taken as an index of response depression or sedation.

[4] = 50% hpbcd, 10 minutes prior to metrazol (85 mg/kg)

For `CCO[C@H]1C[C@@]2(C)[C@@H](CC[C@@H]3[C@@H]2CC[C@]2(C)[C@@H](C(C)=O)CC[C@@H]32)C[C@@H]1O` [2β-Ethoxy-3α-hydroxy-5α-pregnan-20-one], the “Loss-of-Righting Reflex” value (mice [1]; 20% cremophor, 5 mg/kg) was 100.

With `CC(=O)[C@H]1CC[C@H]2[C@@H]3CC[C@H]4C[C@H](O)[C@@H](F)C[C@]4(C)[C@H]3CC[C@]12C` [2β-Fluoro-3α-hydroxy-5α-pregnan-20-one] the “Loss-of-Righting Reflex” value (mice [1]; micronizing solution, 5 mg/kg) was 100.

In the case of `C#C[C@@]1(O)CC[C@@]2(C)[C@H](CC[C@@H]3[C@@H]2CC[C@]2(C)[C@@H](C(=O)CO)CC[C@@H]32)C1` [3α,21-Dihydroxy-3β-ethynyl-5β-pregnan-20-one], the IC50 (GR complex) is reported as 0.216 µM, the IMAX (GR complex) is reported as 104 and the “% Protected” value [2, 4] is reported as 18.8%. For the same compound, the “% Control” value (mice [3]; 50% hpbcd, 10 mg/kg) was 162% and the “Loss-of-Righting Reflex” value (mice [1]; 20% cremophor, 10 mg/kg) was 100.

With `C[C@]12CC[C@H]3[C@@H](CC[C@@H]4C[C@@](O)(C(F)(F)F)CC[C@@H]43)[C@@H]1CC[C@@H]2C(=O)COC(=O)CCC(=O)[O-].[Na+]` [3α,21-dihydroxy-3β-trifluoromethyl-19-nor-5β-pregnan-20-one, 21-hemisuccinate, sodium salt] the IC50 (GR complex) was 0.53 µM, the IMAX (GR complex) was 101 and the “% Protected” value ([2]; water) was 50%. The “% Control” value (mice [3]; water, 20 mg/kg) was 161.1% and the “Geller/Seifter (% of control)” value (rats; po, water, 8 mg/kg) was 2493.4 % of control.

`CC(=O)C1=CC[C@H]2[C@@H]3CC[C@H]4C[C@](C)(O)CC[C@]4(C)[C@H]3CC[C@]12C` [3α-Hydroxy-3β-methyl-5α-pregn-16-en-20-one] was tested, and the “Loss-of-Righting Reflex” value (mice [1]; micronizing solution, 50 mg/kg) was 100.

With `COCCC(=O)[C@H]1CC[C@H]2[C@@H]3CC[C@H]4C[C@](C)(O)CC[C@]4(C)[C@H]3CC[C@]12C` [3α-Hydroxy-3β-methyl-21-methoxymethyl-5α-pregnan-20-one] the “Loss-of-Righting Reflex” value (mice [1]; micronizing solution, 20 mg/kg) was 100.

With `CC(=O)[C@H]1CC[C@H]2[C@@H]3CC[C@@H]4C[C@@](O)(C(F)(F)F)CC[C@@H]4[C@H]3CC[C@]12C` [3α-Hydroxy-3β-trifluoromethyl-5β-19-norpregnan-20-one] the IC50 (GR complex) was 0.076 µM, the IMAX (GR complex) was 100 and the “% Protected” value [2, 4] was 100%. For the same compound, the “% Control” value (mice [3]; 50% hpbcd, 10 mg/kg) was 173.8% and the “Geller/Seifter (% of control)” value (rats; sc, 50% hpbcd, 4 mg/kg) was 1073.1 % of control.

With `CC(=O)[C@H]1CC[C@H]2[C@@H]3CC[C@@H]4C[C@@](O)(C(F)(F)F)CC[C@]4(C)[C@H]3CC[C@]12C` [3α-Hydroxy-3β-trifluoromethyl-5β-pregnan-20-one] the IC50 (GR complex) was 0.211 µM, the IMAX (GR complex) was 98 and the “% Protected” value [2, 4] was 62.5%. For the same compound, the “% Control” value (mice [3]; 50% hpbcd, 20 mg/kg) was 197.6% and the “Geller/Seifter (% of control)” value (rats; sc, 50% hpbcd, 4 mg/kg) was 663.2 % of control.

With `CC(=O)[C@H]1CC[C@H]2[C@@H]3CC[C@H]4C[C@H](O)CC[C@]4(C)C3=CC[C@]12C` [3α-Hydroxy-5α-pregn-9-en-20-one] the “Loss-of-Righting Reflex” value (mice [1]; micronizing solution, 10 mg/kg) was 100.

For `COC=C1CCC2C3CCC4CC(O)CCC4C3CCC12C` (stereo not drawn) [3α-Hydroxy-17(20)(Z)-methoxytnethylene-19-nor-5α-androstane], the “Loss-of-Righting Reflex” value (mice [1]; micronizing solution, 5 mg/kg) was 75.

With `C#C[C@@]1(O)CC[C@@]2(C)[C@@H](CC[C@@H]3[C@@H]2CC[C@]2(C)[C@@H](C(C)=O)CC[C@@H]32)C1` [3α-hydroxy-3β-ethynyl-5α-pregnan-20-one, 3β-Ethynyl-3α-hydroxy-5α-pregnan-20-one] the IC50 (GR complex) was 0.053 µM, the IMAX (GR complex) was 91 and the “% Protected” value [2, 4] was 87.5%. The “% Control” value (mice [3]; 50% hpbcd, 10 mg/kg) was 213% and the “Geller/Seifter (% of control)” value (rats; sc, 50% hpbcd, 8 mg/kg) was 830.2 % of control.

For `CC(=O)[C@H]1CC[C@H]2[C@@H]3CC[C@H]4C[C@](C)(O)CC[C@]4(C)[C@H]3CC[C@]12C` [3α-hydroxy-3β-methyl-5α-pregnan-20-one], the IC50 (GR complex) was 0.062 µM, the IMAX (GR complex) was 97 and the “% Protected” value [2, 4] was 100%. The “% Control” value (mice [3]; 50% hpbcd, 5 mg/kg) was 165.6% and the “Geller/Seifter (% of control)” value (rats; sc, 50% hpbcd, 4 mg/kg) was 1384.6 % of control.

In the case of `CC(=O)[C@H]1CC[C@H]2[C@@H]3CC[C@@H]4C[C@](C)(O)CC[C@]4(C)[C@H]3CC[C@]12C` [3α-hydroxy-3β-methyl-5β-pregnan-20-one], the IC50 (GR complex) is reported as 0.037 µM, the IMAX (GR complex) is reported as 98 and the “% Protected” value ([2]; micro soln.) is reported as 70%. For the same compound, the “Loss-of-Righting Reflex” value (mice [1]; micronizing solution, 2.5 mg/kg) was 100.

In the case of `CC(=O)[C@H]1CC[C@H]2[C@@H]3CC[C@@H]4C[C@@](O)(C#CCl)CC[C@]4(C)[C@H]3CC[C@]12C` [3β-(Chloroethynyl)-3α-hydroxy-5β-prognan-20-one], the “Loss-of-Righting Reflex” value (mice [1]; micronizing solution, 20 mg/kg) is reported as 100.

`CC(=O)[C@H]1CC[C@H]2[C@@H]3CC[C@H]4C[C@@](O)(CF)CC[C@]4(C)[C@H]3CC[C@]12C` [3β-Fluoromethyl-3α-hydroxy-5α-pregnan-20-one] was tested, and the IC50 (GR complex) was 0.2 µM, the IMAX (GR complex) was 77 and the “% Protected” value [2, 4] was 14.3%. The “% Control” value (mice [3]; 50% hpbcd, 20 mg/kg) was 150.7% and the “Geller/Seifter (% of control)” value (rats; sc, 50% hpbcd, 8 mg/kg) was 1005 % of control.

`C=C[C@@]1(O)CC[C@@]2(C)[C@@H](CC[C@@H]3[C@@H]2CC[C@]2(C)[C@@H](C(C)=O)CC[C@@H]32)C1` [3β-ethenyl-3α-hydroxy-5α-pregnan-20-one, 3β-Ethenyl-3α-hydroxy-5α-pregnan-20-one] was tested, and the IC50 (GR complex) was 0.113 µM, the IMAX (GR complex) was 88 and the “% Protected” value [2, 4] was 100%. For the same compound, the “% Control” value (mice [3]; 50% hpbcd, 5 mg/kg) was 154.3% and the “Geller/Seifter (% of control)” value (rats; po, 50% hpbcd, 12 mg/kg) was 1092.3 % of control.

With `C#C[C@@]1(O)CC[C@@]2(C)[C@H](CC[C@@H]3[C@@H]2CC[C@]2(C)[C@@H](C(C)=O)CC[C@@H]32)C1` [3β-ethynyl-3α-hydroxy-5β-pregnan-20-one, 3β-Ethynyl-3α-hydroxy-5β-pregnan-20-one] the IC50 (GR complex) was 0.039 µM, the IMAX (GR complex) was 101 and the “% Protected” value [2, 4] was 100%. For the same compound, the “% Control” value (mice [3]; 50% hpbcd, 1 mg/kg) was 186.6%, the “Geller/Seifter (% of control)” value (rats; sc, 50% hpbcd, 2 mg/kg) was 751.1 % of control and the “Loss-of-Righting Reflex” value (mice [1]; 10% hpbcd, 30 mg/kg) was 100.
